Measurements reported in ChEMBL document CHEMBL1129225, “Synthesis of 11,13-bridged progestational steroids” (1997).
Active and inactive are the calls of the source. The calls are words filed in the database; no cut-off is given here.

Molecular target: T1, Progesterone receptor (Homo sapiens) (UniProt P06401)
T1 sequence (whole entry): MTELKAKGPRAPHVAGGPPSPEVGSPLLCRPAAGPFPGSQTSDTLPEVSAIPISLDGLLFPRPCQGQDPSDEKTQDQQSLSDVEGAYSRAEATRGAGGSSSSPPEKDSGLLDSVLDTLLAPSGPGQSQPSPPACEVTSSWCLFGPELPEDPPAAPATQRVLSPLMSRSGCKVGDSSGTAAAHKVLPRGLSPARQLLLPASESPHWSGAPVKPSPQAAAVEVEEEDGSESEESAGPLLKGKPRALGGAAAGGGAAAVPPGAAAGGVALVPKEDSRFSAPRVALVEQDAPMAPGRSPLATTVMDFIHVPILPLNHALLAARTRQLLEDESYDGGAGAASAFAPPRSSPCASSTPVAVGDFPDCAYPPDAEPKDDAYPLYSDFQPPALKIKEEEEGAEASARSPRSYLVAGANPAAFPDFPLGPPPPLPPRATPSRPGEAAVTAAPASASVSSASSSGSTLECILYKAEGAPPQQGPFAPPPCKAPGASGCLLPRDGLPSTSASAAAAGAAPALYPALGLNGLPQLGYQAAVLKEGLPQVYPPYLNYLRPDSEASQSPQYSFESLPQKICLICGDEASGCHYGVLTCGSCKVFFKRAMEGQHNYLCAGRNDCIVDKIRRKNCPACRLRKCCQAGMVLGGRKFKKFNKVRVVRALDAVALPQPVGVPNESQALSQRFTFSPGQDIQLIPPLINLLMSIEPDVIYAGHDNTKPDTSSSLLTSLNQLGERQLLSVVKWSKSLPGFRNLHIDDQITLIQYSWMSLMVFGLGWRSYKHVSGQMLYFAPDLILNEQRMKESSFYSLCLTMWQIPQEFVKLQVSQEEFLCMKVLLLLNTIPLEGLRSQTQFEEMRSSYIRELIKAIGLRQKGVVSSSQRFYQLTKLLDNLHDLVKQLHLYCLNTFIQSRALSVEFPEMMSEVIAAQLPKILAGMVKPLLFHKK
Test: Relative binding affinity to progesterone receptor of MCF-7 cytosol; No competitive binding

Row | relative binding affinity (RBA) | Compound
1 | inactive | C#C[C@]1(O)CCC2C3CCC4=CC(=O)CCC4C3[C@@H]3C[C@@]21CO3 (stereo partly specified)

Test system: Oryctolagus cuniculus
Test: In vivo activity using McPhail test after oral dose
Type: functional

Row | Compound | ED2 [µg/kg]
2 | C#C[C@]1(O)CC[C@H]2[C@@H]3CCC4=CC(=O)CC[C@@H]4[C@H]3CC[C@@]21C [NORETHINDRONE] | 500
3 | C#C[C@]1(O)CCC2C3CCC4=CC(=O)CCC4C3[C@@H](C)CC21C (stereo partly specified) | 15
4 | C#C[C@]1(O)CCC2C3CCC4=CC(=O)CCC4C3[C@H]3CC[C@]21C3 (stereo partly specified) | 32
5 | C#C[C@]1(O)CCC2C3CCC4=CC(=O)CCC4C3[C@H]3C=C[C@]21C3 (stereo partly specified) | >125
6 | C#C[C@]1(O)CCC2C3CCC4=CC(=O)CCC4C3[C@@H]3C[C@@]21CO3 (stereo partly specified) | >4000
